Patent publication US8871753B2, “Macrocyclic compounds and their use as kinase inhibitors” (Incyte Corporation, priority 2008, dated 2014)
Counter-ions that a name gives are not always drawn. Like-named read-outs stand apart in the source and are kept apart here.

How the values were obtained:
Format in all cases: biochemical
TYK2 = TYK2 (Homo sapiens, UniProt P29597); test: TYK2 kinase inhibition (Table A1)
[1] = target: T1, human JAK1 (a.a. 837-1142) (Homo sapiens, UniProt P23458); test: In vitro JAK kinase assay (HTRF, phosphorylation of a biotinylated peptide), JAK1; conditions: read-out: JAK1 IC50
T1 construct: human JAK1 (a.a. 837-1142); His tag (N); made in house; host or cells: insect cells (baculovirus)
Outline: (§1)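 Kinase reactions ran at room temperature for 1 h with ATP matched per isoform (JAK1 90 μM, JAK2 30 μM, JAK3 3 μM). After an EDTA stop, the phosphorylated biotin-peptide was read by HTRF using Eu-Py20 and SA-APC after 40 min binding.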

[2] = target: T2, human JAK2 (a.a. 828-1132) (Homo sapiens, UniProt O60674); test: In vitro JAK kinase assay (HTRF, phosphorylation of a biotinylated peptide), JAK2
T2 construct: JAK2 (a.a. 828-1132); His tag (N); made in house; host or cells: insect cells (baculovirus)
Outline: as §1

[3] = target: T3, human JAK3 (a.a. 781-1124) (Homo sapiens, UniProt P52333); test: In vitro JAK kinase assay (HTRF, phosphorylation of a biotinylated peptide), JAK3
T3 construct: JAK3 (a.a. 781-1124); His tag (N); made in house; host or cells: insect cells (baculovirus)
Experimental: The catalytic activity of JAK1, JAK2 or JAK3 was assayed by measuring the phosphorylation of a biotinylated peptide. The phosphorylated peptide was detected by homogenous time resolved fluorescence (HTRF). […] The ATP concentration in the reactions was 90 μM for JAK1, 30 μM for JAK2 and 3 μM for JAK3. Reactions were carried out at room temperature for 1 hr and then stopped with 20 μL 45 mM EDTA, 300 nM SA-APC, 6 nM Eu-Py20 in assay buffer (Perkin Elmer, Boston, Mass.). Binding to the Europium labeled antibody took place for 40 minutes and HTRF signal was measured on a Fusion plate reader (Perkin Elmer, Boston, Mass.).
The catalytic activity of JAK1, JAK2 or JAK3 was assayed by measuring the phosphorylation of a biotinylated peptide. The phosphorylated peptide was detected by homogenous time resolved fluorescence (HTRF). […] Reactions were carried out at room temperature for 1 hr and then stopped with 20 μL 45 mM EDTA, 300 nM SA-APC, 6 nM Eu-Py20 in assay buffer (Perkin Elmer, Boston, Mass.). Binding to the Europium labeled antibody took place for 40 minutes and HTRF signal was measured on a Fusion plate reader (Perkin Elmer, Boston, Mass.).

T2 sequence (O60674 828-1132): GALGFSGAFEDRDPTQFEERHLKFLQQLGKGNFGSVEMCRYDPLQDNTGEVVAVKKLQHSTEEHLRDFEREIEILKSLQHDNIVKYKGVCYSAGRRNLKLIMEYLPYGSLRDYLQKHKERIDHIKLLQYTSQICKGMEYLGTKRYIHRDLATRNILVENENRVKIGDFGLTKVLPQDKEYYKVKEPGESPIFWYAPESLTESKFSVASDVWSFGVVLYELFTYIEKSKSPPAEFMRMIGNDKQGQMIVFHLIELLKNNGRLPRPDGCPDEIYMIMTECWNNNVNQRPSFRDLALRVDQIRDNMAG
TYK2, sequence (P29597 whole entry): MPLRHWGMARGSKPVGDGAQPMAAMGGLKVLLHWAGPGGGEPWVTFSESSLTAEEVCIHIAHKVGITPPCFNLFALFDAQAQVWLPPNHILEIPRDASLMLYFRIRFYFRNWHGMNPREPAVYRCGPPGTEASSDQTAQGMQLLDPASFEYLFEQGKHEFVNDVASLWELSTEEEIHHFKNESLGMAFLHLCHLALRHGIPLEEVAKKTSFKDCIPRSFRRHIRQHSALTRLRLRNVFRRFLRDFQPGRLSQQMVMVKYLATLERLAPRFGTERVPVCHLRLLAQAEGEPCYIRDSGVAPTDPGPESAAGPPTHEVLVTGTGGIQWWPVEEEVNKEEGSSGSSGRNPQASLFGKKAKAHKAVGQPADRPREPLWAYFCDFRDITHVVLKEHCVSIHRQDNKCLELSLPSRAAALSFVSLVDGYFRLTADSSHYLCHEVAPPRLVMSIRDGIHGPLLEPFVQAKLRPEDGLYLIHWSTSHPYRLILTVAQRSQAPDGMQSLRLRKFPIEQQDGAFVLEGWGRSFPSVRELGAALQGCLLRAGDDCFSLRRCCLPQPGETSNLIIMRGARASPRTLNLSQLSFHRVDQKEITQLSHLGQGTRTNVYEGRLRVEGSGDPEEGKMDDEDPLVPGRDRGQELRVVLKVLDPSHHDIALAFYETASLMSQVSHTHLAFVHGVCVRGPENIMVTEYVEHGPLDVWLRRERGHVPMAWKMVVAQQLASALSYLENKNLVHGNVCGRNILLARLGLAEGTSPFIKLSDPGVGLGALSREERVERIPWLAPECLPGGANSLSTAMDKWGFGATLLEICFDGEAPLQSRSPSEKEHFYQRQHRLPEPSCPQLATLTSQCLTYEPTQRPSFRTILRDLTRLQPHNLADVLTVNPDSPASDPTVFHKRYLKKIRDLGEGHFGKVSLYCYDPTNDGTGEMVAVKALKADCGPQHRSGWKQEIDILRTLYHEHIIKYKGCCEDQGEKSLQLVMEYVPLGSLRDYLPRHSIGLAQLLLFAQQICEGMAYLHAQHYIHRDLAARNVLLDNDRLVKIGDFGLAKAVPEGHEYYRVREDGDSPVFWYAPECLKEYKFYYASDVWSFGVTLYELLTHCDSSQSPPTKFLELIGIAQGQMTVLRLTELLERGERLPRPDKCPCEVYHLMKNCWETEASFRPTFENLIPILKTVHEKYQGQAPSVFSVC
T1 sequence (P23458 849-1154): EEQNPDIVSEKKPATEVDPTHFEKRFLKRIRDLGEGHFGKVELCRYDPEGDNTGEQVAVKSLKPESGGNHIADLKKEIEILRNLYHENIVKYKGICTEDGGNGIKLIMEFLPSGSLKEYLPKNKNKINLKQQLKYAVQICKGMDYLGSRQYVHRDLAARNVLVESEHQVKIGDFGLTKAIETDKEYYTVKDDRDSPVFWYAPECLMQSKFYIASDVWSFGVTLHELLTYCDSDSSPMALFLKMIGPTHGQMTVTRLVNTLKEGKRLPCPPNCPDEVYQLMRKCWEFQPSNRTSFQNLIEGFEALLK
T3 sequence (P52333 781-1124): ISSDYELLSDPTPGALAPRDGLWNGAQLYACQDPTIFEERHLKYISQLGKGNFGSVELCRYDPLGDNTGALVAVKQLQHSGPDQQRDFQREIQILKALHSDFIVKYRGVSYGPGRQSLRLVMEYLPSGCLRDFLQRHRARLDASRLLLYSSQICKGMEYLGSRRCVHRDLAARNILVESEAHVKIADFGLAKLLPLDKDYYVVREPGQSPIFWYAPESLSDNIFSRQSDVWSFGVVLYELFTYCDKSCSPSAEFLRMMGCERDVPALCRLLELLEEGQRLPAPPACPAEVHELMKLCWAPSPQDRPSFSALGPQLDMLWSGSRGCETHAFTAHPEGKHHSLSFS

Row | Structure (SMILES) | IC50 (TYK2; Table D1) | IC50 ([1]; Table D1) | IC50 ([2]; Table D1) | IC50 ([3]; Table D1) | IC50 (TYK2) | IC50 [1] | IC50 [2] | IC50 [3] | IC50 ([1]; method AA1 (90 μM ATP) or AA2 (1000 μM ATP), not stated per value) | IC50 ([2]; method AA1 (30 μM ATP) or AA2 (1000 μM ATP), not stated per value) | IC50 ([3]; method AA1 (3 μM ATP) or AA2 (1000 μM ATP), not stated per value)
1 | O=C(Nc1ccccc1F)N1CCC(CCOc2ccc3cc2CCc2cncc(c2)Nc2ncc(Cl)c(n2)N3)CC1 [Example D170, 4-(2-{[6-Chloro-2,4,8,18,22-pentaazatetracyclo[14.3.1.1(3,7).1(9,13)]docosa-1(20),3(22),4,6,9(21),10,12,16,18-nonaen-12-yl]oxy}ethyl)-N-(2-fluorophenyl)piperidine-1-carboxamide bis(trifluoroacetate)] | > 400 nM | 23 nM | 130 nM | > 400 nM |  |  |  |  |  |  | 
2 | CC(=O)N1CCC[C@@H](CC(=O)Nc2ccc3cc2CCc2cncc(c2)Nc2ncc(Cl)c(n2)N3)C1 [Example D204, 2-[(3S)-1-Acetylpiperidin-3-yl]-N-[6-chloro-2,4,8,18,22-pentaazatetracyclo[14.3.1.1(3,7).1(9,13)]docosa-1(20),3(22),4,6,9(21),10,12,16,18-nonaen-12-yl]acetamide bis(trifluoroacetate)] | 12 nM | 7.2 nM | 12 nM | 101 nM |  |  |  |  |  |  | 
3 | Cc1cc(C(=O)N2CCC(COc3ccc4cc3CCc3cncc(c3)Nc3ncc(Cl)c(n3)N4)C2)no1 (stereo not shown) [Example C58, 6-Chloro-12-({1-[(5-methylisoxazol-3-yl)carbonyl]pyrrolidin-3-yl}methoxy)-2,4,8,18,22-pentaazatetracyclo[14.3.1.1(3,7).1(9,13)]docosa-1(20),3(22),4,6,9(21),10,12,16,18-nonaene bis(trifluoroacetate)] |  |  |  |  | > 400 nM | 217 nM | > 400 nM | > 400 nM |  |  | 
4 | O=C(C[C@H]1CCN(c2nc3cccnc3o2)C1)Nc1ccc2cc1CCc1cncc(c1)Nc1ncc(Cl)c(n1)N2 [Example D139, N-[6-Chloro-2,4,8,18,22-pentaazatetracyclo[14.3.1.1(3,7).1(9,13)]docosa-1(20),3(22),4,6,9(21),10,12,16,18-nonaen-12-yl]-2-[(3R)-1-[1,3]oxazolo[5,4-b]pyridin-2-ylpyrrolidin-3-yl]acetamide tris(trifluoroacetate)] | 282 nM | 12 nM | 159 nM | > 1000 nM |  |  |  |  |  |  | 
5 | CC(=O)N1CCN(c2ccc3cc2CCc2cccc(c2)Nc2ncc(Cl)c(n2)N3)CC1 [Example D85, 12-(4-Acetylpiperazin-1-yl)-6-chloro-2,4,8,22-tetraazatetracyclo[14.3.1.1(3,7).1(9,13)]docosa-1(20),3(22),4,6,9(21),10,12,16,18-nonaene bis(trifluoroacetate)] | 40 nM | 24 nM | 6.6 nM | 31 nM |  |  |  |  |  |  | 
6 | O=C(Cn1c(=O)oc2c3cc(cc21)Nc1nc(ncc1Cl)Nc1cccc(c1)CC3)N1CCOCC1 [Example D187, 4-Chloro-20-(2-morpholin-4-yl-2-oxoethyl)-18-oxa-2,6,8,20,25-pentaazapentacyclo[14.6.1.1(3,7).1(9,13).0(17,21)]pentacosa-1(23),3(25),4,6,9(24),10,12,16,21-nonaen-19-one trifluoroacetate] | > 1000 nM | 200 nM | 185 nM | 130 nM |  |  |  |  |  |  | 
7 | Cc1cc(C(=O)N2CCC(CC(=O)Nc3ccc4cc3CCc3cncc(c3)Nc3ncc(C)c(n3)N4)CC2)no1 [Example C51, 2-{1-[(5-Methylisoxazol-3-yl)carbonyl]piperidin-4-yl}-N-[6-methyl-2,4,8,18,22-pentaazatetracyclo[14.3.1.1(3,7).1(9,13)]docosa-1(20),3(22),4,6,9(21),10,12,16,18-nonaen-12-yl]acetamide bis(trifluoroacetate)] |  |  |  |  | 100 nM | 13 nM | 371 nM | > 400 nM |  |  | 
8 | O=C(C[C@@H]1CCCNC1)Nc1ccc2cc1CCc1cncc(c1)Nc1ncc(Cl)c(n1)N2 [Example D194, N-[6-Chloro-2,4,8,18,22-pentaazatetracyclo[14.3.1.1(3,7).1(9,13)]docosa-1(20),3(22),4,6,9(21),10,12,16,18-nonaen-12-yl]-2-[(3S)-piperidin-3-yl]acetamidetris(trifluoroacetate)] | 23 nM | 5.8 nM | 46 nM | 144 nM |  |  |  |  |  |  | 
9 | COC(=O)N1CCN(C(=O)COc2ccc3cc2CCc2cncc(c2)Nc2ncc(Cl)c(n2)N3)CC1 [Example D261, Methyl 4-({[6-chloro-2,4,8,18,22-pentaazatetracyclo[14.3.1.1(3,7).1(9,13)]docosa-1(20),3(22),4,6,9(21),10,12,16,18-nonaen-12-yl]oxy}acetyl)piperazine-1-carboxylate bis(trifluoroacetate)] | > 400 nM | 31 nM | 106 nM | > 400 nM |  |  |  |  |  |  | 
10 | O=C(COc1ccc2cc1CCc1cncc(c1)Nc1ncc(Cl)c(n1)N2)N1CCN(C(=O)C2CCCO2)CC1 (stereo not shown) [Example D272, 6-Chloro-12-{2-oxo-2-[4-(tetrahydrofuran-2-ylcarbonyl)piperazin-1-yl]ethoxy}-2,4,8,18,22-pentaazatetracyclo[14.3.1.1(3,7).1(9,13)]docosa-1(20),3(22),4,6,9(21),10,12,16,18-nonaene bis(trifluoroacetate)] | > 400 nM | 38 nM | 288 nM | > 400 nM |  |  |  |  |  |  | 
11 | O=C(Cc1ccccn1)Nc1ccc2cc1CCc1cccc(c1)Nc1ncc(Cl)c(n1)N2 [Example C41, N-[6-Chloro-2,4,8,22-tetraazatetracyclo[14.3.1.1(3,7).1(9,13)]docosa-1(20),3(22),4,6,9(21),10,12,16,18-nonaen-12-yl]-2-pyridin-2-ylacetamide bis(trifluoroacetate)] |  |  |  |  | 246 nM | 112 nM | 65 nM | 1170 nM |  |  | 
12 | Clc1cnc2nc1Nc1ccc(NCCC3CCNCC3)c(c1)CCc1cncc(c1)N2 [Example D216, 6-Chloro-N-(2-piperidin-4-ylethyl)-2,4,8,18,22-pentaazatetracyclo[14.3.1.1(3,7).1(9,13)]docosa-1(20),3(22),4,6,9(21),10,12,16,18-nonaen-12-amine tetrakis(trifluoroacetate)] | 300 nM | 23 nM | 276 nM | > 400 nM |  |  |  |  |  |  | 
13 | O=C(C[C@H]1CCCNC1)Nc1ccc2cc1CCc1cncc(c1)Nc1ncc(Cl)c(n1)N2 [Example D195, N-[6-Chloro-2,4,8,18,22-pentaazatetracyclo[14.3.1.1(3,7).1(9,13)]docosa-1(20),3(22),4,6,9(21),10,12,16,18-nonaen-12-yl]-2-[(3R)-piperidin-3-yl]acetamidetris(trifluoroacetate)] | 31 nM | 18 nM | 54 nM | 355 nM |  |  |  |  |  |  | 
14 | O=S(=O)(c1ccccc1F)N1CCC(CCNc2ccc3cc2CCc2cncc(c2)Nc2ncc(Cl)c(n2)N3)CC1 [Example D221, 6-Chloro-N-(2-{1-[(2-fluorophenyl)sulfonyl]piperidin-4-yl}ethyl)-2,4,8,18,22-pentaazatetracyclo[14.3.1.1(3,7).1(9,13)]docosa-1(20),3(22),4,6,9(21),10,12,16,18-nonaen-12-amine tris(trifluoroacetate)] | 59 nM | 20 nM | 70 nM | > 400 nM |  |  |  |  |  |  | 
15 | N#Cc1ccccc1S(=O)(=O)N1CCC(CCOc2ccc3cc2CCc2cncc(c2)Nc2ncc(Cl)c(n2)N3)CC1 [Example D163, 2-{[4-(2-{[6-Chloro-2,4,8,18,22-pentaazatetracyclo[14.3.1.1(3,7).1(9,13)]docosa-1(20),3(22),4,6,9(21),10,12,16,18-nonaen-12-yl]oxy}ethyl)piperidin-1-yl]sulfonyl}benzonitrilebis(trifluoroacetate)] | > 400 nM | 190 nM | > 400 nM | > 400 nM |  |  |  |  |  |  | 
16 | O=C(CC1CCN(c2nc3cccnc3o2)CC1)Nc1ccc2cc1CCc1cccc(c1)Nc1ncc(Cl)c(n1)N2 [Example A126, N-[6-Chloro-2,4,8,22-tetraazatetracyclo[14.3.1.1(3,7).1(9,13)]docosa-1(20),3(22),4,6,9(21),10,12,16,18-nonaen-12-yl]-2-(1-[1,3]oxazolo[5,4-b]pyridin-2-ylpiperidin-4-yl)acetamide bis(trifluoroacetate)] |  |  |  |  | 7.5 nM |  |  |  | 0.5 nM | 2.6 nM | 34 nM
